Measurements as given in ChEMBL document CHEMBL3137667, “[Drug-induced liver injury; fourteenth updated edition of the bibliographic database of liver injuries and related drugs]” (Gastroenterol Clin Biol, 2004).

Tests used:
[1] = Highest frequency of acute liver toxicity observed during clinical trials, expressed as a percentage. [column '% AIGUE' in source]; details: human
[2] = human
[3] = human, serum
[4] = human; remark: listed apart in the source
[5] = human; remark: listed apart in the source
[6] = human; remark: listed apart in the source
[7] = human, serum; remark: listed apart in the source
[8] = human, serum, 4383 h
[9] = human; remark: listed apart in the source
[10] = human; remark: listed apart in the source
[11] = human; remark: listed apart in the source
[12] = human; remark: listed apart in the source
[13] = human; remark: listed apart in the source
[14] = Times to onset, minimal and maximal, observed in the indexed observations. [column 'DELAI' in source]; details: human
[15] = Highest frequency of moderate liver toxicity observed during clinical trials, expressed as a percentage. [column '% BIOL' in source]; details: human
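Throughout, for Hepatotoxicity (association with vascular disease): count of indexed literature references reporting vascular liver injury in humans, e.g. peliosis hepatitis, hepatic veno-occlusive disease or Budd-Chiari syndrome.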
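Throughout, for Hepatotoxicity (benign tumour): value is a count of indexed literature references citing a benign tumour confirmed by histopathology.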
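Throughout, for Hepatotoxicity (choleostasis): human cholestatic liver injury, shown by histopathology or by peak ALT or AST elevation over alkaline phosphatase ratio below 2, value counts indexed literature reports.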
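Throughout, for Hepatotoxicity (chronic liver disease): chronic liver injury confirmed by histopathology or persistently raised serum aminotransferase activity beyond 6 months, value given as the count of indexed literature references.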
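Throughout, for Hepatotoxicity (cirrhosis): value is a count of indexed literature references reporting cirrhosis confirmed by histopathology.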
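Throughout, for Hepatotoxicity (cytolytic): human cytolytic liver injury, shown by histopathology or by a ratio above 5 of peak ALT or AST elevation to alkaline phosphatase elevation, value counts indexed references.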
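Throughout, for Hepatotoxicity (granulomatous hepatitis): value is a count of indexed literature references reporting granulomatous liver disease confirmed by histopathology.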
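Throughout, for Hepatotoxicity (malignant tumour): malignant tumour confirmed by histopathology, value gives the count of indexed literature references reporting it.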
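Throughout, for Hepatotoxicity (severe hepatitis): human clinical data: severe hepatitis, meaning potentially life-threatening liver failure or clinically observed cases, the value counts how many indexed literature references report it.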
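Throughout, for Hepatotoxicity (steatosis): steatosis confirmed by histopathology, value is the count of indexed references.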

| Compound | Hepatotoxicity (acute) [1] | Hepatotoxicity (malignant tumour) [2] | Hepatotoxicity (moderate) [3] | Hepatotoxicity (granulomatous hepatitis) [4] | Hepatotoxicity (cytolytic) [5] | Hepatotoxicity (severe hepatitis) [6] | Hepatotoxicity (acute) [7] | Hepatotoxicity (chronic liver disease) [8] | Hepatotoxicity (cirrhosis) [9] | Hepatotoxicity (benign tumour) [10] | Hepatotoxicity (steatosis) [11] | Hepatotoxicity (association with vascular disease) [12] | Hepatotoxicity (choleostasis) [13] | Hepatotoxicity (time to onset) [14] | Hepatotoxicity (moderate) [15] |
| --- | --- | --- | --- | --- | --- | --- | --- | --- | --- | --- | --- | --- | --- | --- | --- |
| CN[C@H](CC(C)C)C(=O)N[C@H]1C(=O)N[C@@H](CC(N)=O)C(=O)N[C@H]2C(=O)N[C@H]3C(=O)N[C@H](C(=O)N[C@H](C(=O)O)c4cc(O)cc(O)c4-c4cc3ccc4O)[C@H](O)c3ccc(c(Cl)c3)Oc3cc2cc(c3O[C@@H]2O[C@H](CO)[C@@H](O)[C@H](O)[C@H]2O[C@H]2C[C@](C)(N)[C@H](O)[C@H](C)O2)Oc2ccc(cc2Cl)[C@H]1O [VANCOMYCIN] | 0% | 0 | 9 | 0 | 1 | 0 | 1 | 0 | 0 | 0 | 0 | 0 | 0 | 4 days | 50% |
| O=C(O)Cc1cn(-c2ccccc2)nc1-c1ccc(Cl)cc1 [LONAZOLAC] | 1.3% | 0 | 0 | 0 | 0 | 0 | 1 | 0 | 0 | 0 | 0 | 0 | 0 | 1 month | 0% |
| CO/N=C1\CN(c2nc3c(cc2F)c(=O)c(C(=O)O)cn3C2CC2)CC1CN (stereo not given) [GEMIFLOXACIN] | 0% | 0 | 4 | 0 | 0 | 0 | 0 | 0 | 0 | 0 | 0 | 0 | 0 | 6 days | 0.3% |
| NN [HYDRAZINE] | 0% | 0 | 0 | 0 | 1 | 1 | 1 | 0 | 0 | 0 | 0 | 0 | 0 | 3.5 months | 0% |
| [H]/N=C(/N)N/C(=N/[H])NCCc1ccccc1 [PHENFORMIN] | 0% | 0 | 0 | 0 | 0 | 0 | 1 | 0 | 0 | 0 | 0 | 0 | 0 | 1 week | 0% |
| CC(=O)[C@@]1(O)CC[C@H]2[C@@H]3C=C(C)C4=CC(=O)CC[C@@H]4[C@H]3CC[C@@]21C [NOMEGESTROL] | 0% | 0 | 0 | 0 | 2 | 2 | 2 | 0 | 0 | 0 | 0 | 0 | 0 | 4 months - 5 months | 0% |
| O=C1CC2(CCCC2)CC(=O)N1CCCCN1CCN(c2ncccn2)CC1 [BUSPIRONE] | 0% | 0 | 2 | 0 | 1 | 0 | 1 | 0 | 0 | 0 | 0 | 0 | 1 | 26 days | 5.3% |
| CC(C)NCC(O)c1ccc(NS(C)(=O)=O)cc1 (stereo not given) [SOTALOL] | 0% | 0 | 0 | 0 | 1 | 0 | 1 | 1 | 0 | 0 | 0 | 0 | 0 | 10 months | 0% |
| NC(=O)OCC(COC(N)=O)c1ccccc1 [FELBAMATE] | 0% | 0 | 4 | 0 | 2 | 3 | 4 | 0 | 0 | 0 | 0 | 0 | 0 | 13 days - 6 months | 7.1% |
| O=C(NCCN1CCOCC1)c1ccc(Cl)cc1 [MOCLOBEMIDE] | 0% | 0 | 1 | 0 | 0 | 1 | 1 | 0 | 0 | 0 | 0 | 0 | 1 | 1 week - 9 days | 0% |
| O=NN(CCCl)C(=O)N[C@H]1C(O)O[C@H](CO)[C@@H](O)[C@@H]1O (stereo not given in full) [CHLOROZOTOCIN] | 0% | 0 | 2 | 0 | 1 | 0 | 2 | 0 | 0 | 0 | 0 | 0 | 1 | 1.5 months | 33% |
| CN1CCOC(c2ccccc2)c2ccccc2C1 (stereo not given) [NEFOPAM] | 0% | 0 | 1 | 0 | 0 | 0 | 0 | 0 | 0 | 0 | 0 | 0 | 0 | 4 weeks | 14.3% |
| C(=C\c1ccccc1)/CN1CCN(C(c2ccccc2)c2ccccc2)CC1 [CINNARIZINE] | 0% | 0 | 0 | 0 | 0 | 0 | 2 | 0 | 0 | 0 | 0 | 0 | 2 | 3 weeks - 7 weeks | 0% |
| CS[C@H]1SC[C@H]2C(=O)N(C)[C@@H](C(C)C)C(=O)OC[C@@H](NC(=O)c3cnc4ccccc4n3)C(=O)N[C@@H](C)C(=O)N(C)[C@@H]1C(=O)N(C)[C@@H](C(C)C)C(=O)OC[C@@H](NC(=O)c1cnc3ccccc3n1)C(=O)N[C@@H](C)C(=O)N2C [ECHINOMYCIN] | 4.8% | 0 | 8 | 0 | 3 | 1 | 4 | 0 | 0 | 0 | 0 | 0 | 0 | 4 days - 19 days | 29.4% |
